Like-named read-outs stand apart in the source and are kept apart here.
Key:
[1] = test system: male SD rats with 7/8 of their kidney arteries ligated; assay: renal osteodystrophy model: rats with 7/8 of kidney arteries ligated, oral administration for 4 months; femur mineral content by single photon absorptiometry and bone histology; type: in vivo; details: sham-operated control 0.284± 0.023, ligation-operated control 0.259± 0.017
Description: In view of these circumstances, the present inventors have made extensive investigations to develop novel rat models wherein renal insufficiency induces abnormal bone quality and low bone mass similar to clinical renal osteodystrophy. As a result, the present inventors have succeeded in obtaining an animal model with such diseases. Thus, after 7/8 of kidney arteries were ligated, animals endurable even for a long breeding term with a mild renal insufficiency were selected and carefully bred for 6 months to establish an animal model with renal osteodystrophy with accompanying abnormal bone quality and low bone mass.
After male SD rats with 7/8 of their kidney arteries ligated at 11 weeks old are bred for 8 weeks, 24R, 25-(OH)₂-D₃ and 24, 25-(OH)₂-D₃ (a racemate of 24R and 24S isomers) are administered orally to the rat for 4 months, respectively.
A solution of sesame oil (the Pharmacopoeia of Japan) containing 0.5 % ethanol is utilized as the solvent. The test is conducted by using 5 groups each of which consists of 6 to 10 rats as follows: • I. sham-operated control group (normal control group, solvent administration) n=8 • II. solvent administration control group n=6 • III. 24R, 25-(OH)₂-D₃ 0.1 µg/kg n=6 • IV. 24R, 25-(OH)₂-D₃ 5.0 µg/kg n=10 • V. 24, 25-(OH)₂-D₃ 5.0 µg/kg n=10
After administration, blood is anesthetically collected and applied to a biochemical serum analysis. After femur is resected, mineral content of femur is measured by means with equipment capable of measuring bone mass (single photon absorptiometry; SPA). Further, the bone tissue sample is stained by Villaneuva's bone staining after slicing, followed by observation under a microscope.

[2] = acute toxicity, oral administration in sesame oil, death rates for 2 weeks; details: mouse, in vivo, sesame oil containing 0.5 % ethanol, read-out: LD₅₀ (lethal dose, 50% mortality)
Experimental: The active compound of the present invention is tested for acute toxicity and the resultant data is shown as follows:
The active compound of the present invention, 24R, 25-(OH)₂-D₃ is admixed with a sesame oil (containing 0.5 % ethanol) and the mixture is orally administered to 4 groups of female and male ICR mice (each group has 5 mice) (body weight: male 29 to 33 g, female 22 to 29 g). Two weeks later, toxic symptom is observed.

Compound: C=C1CC[C@H](O)C/C1=C/C=C1\CCC[C@]2(C)[C@@H]([C@H](C)CCC(O)C(C)(C)O)CC[C@@H]12 (some centres unmarked) [24, 25-(OH)₂-D₃, 24, 25-dihydroxycholecalciferol]
- bone mass (mineral content of femur, SPA) ([1]; 5.0 µg/kg orally for 4 months): 0.282± 0.025 g/cm²

Compound: C=C1CC[C@H](O)C/C1=C/C=C1\CCC[C@]2(C)[C@@H]([C@H](C)CC[C@@H](O)C(C)(C)O)CC[C@@H]12 [24R, 25-(OH)₂-D₃, 24R, 25-dihydroxycholecalciferol]
- bone mass (mineral content of femur, SPA) ([1]; 0.1 µg/kg orally for 4 months): 0.291± 0.032 g/cm²
- bone mass (mineral content of femur, SPA) ([1]; 5.0 µg/kg orally for 4 months): 0.292 ± 0.019 g/cm²
- LD50 at 336 h ([2]; female ICR mice): 253 mg/kg
- LD50 at 336 h ([2]; male ICR mice): 215 mg/kg

Source: patent EP0629405A1, “Agent for inhibiting a decrease in bone mass in renal osteodystrophy” (KUREHA CHEMICAL INDUSTRY CO., LTD., priority 1993, dated 1994)
